Biological target: Human CARM1 (PRMT4) (Homo sapiens (Human), UniProt Q86X55)
Test: CARM1 enzyme assay on peptide substrate (3H-SAM Flashplate)
Conditions: Biochemical potencies, classification codes; read-out: Biochem IC50
Excerpt: S-adenosylmethionine (SAM), S-adenosylhomocysteine (SAH), bicine, Tween20, dimethylsulfoxide (DMSO), bovine skin gelatin (BSG), sodium butyrate and Tris(2-carboxyethyl)phosphine hydrochloride solution (TCEP) were purchased from Sigma-Aldrich at the highest level of purity possible. ^3H-SAM was purchase from American Radiolabeled Chemicals with a specific activity of 80 Ci/mmol. 384-well streptavidin Flashplates were purchased from PerkinElmer.
Peptide representative of human histone H3 residues 16-30 was synthesized with an N-terminal linker-affinity tag motif and a C-terminal amide cap by 21st Century Biochemicals. […] The sequence was Biot-Ahx-[…]-amide and contained a monomethylated arginine at position 26 (SEQ ID NO.:1).
The gene sequence encoding isoform1 containing a deletion of amino acids 539-561 was amplified subsequently and subcloned into pFastBacMam (Viva Biotech).
Recombinant baculovirus were generated according to Bac-to-Bac kit instructions (Life Technologies). Protein over-expression was accomplished by infecting exponentially growing HEK 293F cell culture at 1.3×10^6cell/ml with virus (MOI=10) in the presence of 8 mM sodium butyrate. Infections were carried out at 37° C. for 48 hours, harvested by centrifugation, and stored at −80° C. for purification.
Expressed full-length human Flag- and His-tagged CARM1 protein was purified from cell paste by anti-flag M2 affinity chromatography with resin equilibrated with buffer containing 20 mM Tris, 150 mM NaCl, 5% glycerol, pH 7.8. Column was washed with 500 mM NaCl in buffer A and Flag-CARM1-His was eluted with 200 ug/ml FLAG peptide in buffer A. Pooled fractions were dialyzed in 20 mM Tris, 150 mM NaCl, 5% glycerol and 1 mM DTT, pH 7.8.
The assays were all performed in a buffer consisting of 20 mM Bicine (pH=7.6), 1 mM TCEP, 0.005% BSG, and 0.002% Tween 20, prepared on the day of use. Compounds in 100% DMSO (1 ul) were spotted into a polypropylene 384-well V-bottom plates (Greiner) using a Platemate Plus outfitted with a 384-channel head (Thermo Scientific). DMSO (1 ul) was added to Columns 11, 12, 23, 24, rows A-H for the maximum signal control and 1 ul of SAH, a known product and inhibitor of CARM1, was added to columns 11, 12, 23, 24, rows I-P for the minimum signal control. A cocktail (40 ul) containing the CARM1 enzyme was added by Multidrop Combi (Thermo-Fisher). The compounds were allowed to incubate with CARM1 for 30 min at room temperature, then a cocktail (10 ul) containing ^3H-SAM and peptide was added to initiate the reaction (final volume=51 ul). The final concentrations of the components were as follows: CARM1 was 0.25 nM, ^3H-SAM was 30 nM, peptide was 250 nM, SAH in the minimum signal control wells was 1 mM, and the DMSO concentration was 2%. The assays were stopped by the addition of non-radiolabeled SAM (10 ul) to a final concentration of 300 uM, which dilutes the ^3H-SAM to a level where its incorporation into the peptide substrate is no longer detectable. 50 ul of the reaction in the 384-well polypropylene plate was then transferred to a 384-well Flashplate and the biotinylated peptides were allowed to bind to the streptavidin surface for at least 1 hour before being washed once with 0.1% Tween20 in a Biotek ELx405 plate washer. The plates were then read in a PerkinElmer TopCount plate reader to measure the quantity of ^3H-labeled peptide bound to the Flashplate surface, measured as disintegrations per minute (dpm) or alternatively, referred to as counts per minute (cpm).
where dpm=disintegrations per minute, cmpd=signal in assay well, and min and max are the respective minimum and maximum signal controls.
where top and bottom are the normally allowed to float, but may be fixed at 100 or 0 respectively in a 3-parameter fit. The Hill Coefficient normally allowed to float but may also be fixed at 1 in a 3-parameter fit. Y is the % inhibition and X is the compound concentration.

Human CARM1 (PRMT4), sequence (Q86X55 other isoform, or with tags, fused parts or gaps isoform Q86X55-1): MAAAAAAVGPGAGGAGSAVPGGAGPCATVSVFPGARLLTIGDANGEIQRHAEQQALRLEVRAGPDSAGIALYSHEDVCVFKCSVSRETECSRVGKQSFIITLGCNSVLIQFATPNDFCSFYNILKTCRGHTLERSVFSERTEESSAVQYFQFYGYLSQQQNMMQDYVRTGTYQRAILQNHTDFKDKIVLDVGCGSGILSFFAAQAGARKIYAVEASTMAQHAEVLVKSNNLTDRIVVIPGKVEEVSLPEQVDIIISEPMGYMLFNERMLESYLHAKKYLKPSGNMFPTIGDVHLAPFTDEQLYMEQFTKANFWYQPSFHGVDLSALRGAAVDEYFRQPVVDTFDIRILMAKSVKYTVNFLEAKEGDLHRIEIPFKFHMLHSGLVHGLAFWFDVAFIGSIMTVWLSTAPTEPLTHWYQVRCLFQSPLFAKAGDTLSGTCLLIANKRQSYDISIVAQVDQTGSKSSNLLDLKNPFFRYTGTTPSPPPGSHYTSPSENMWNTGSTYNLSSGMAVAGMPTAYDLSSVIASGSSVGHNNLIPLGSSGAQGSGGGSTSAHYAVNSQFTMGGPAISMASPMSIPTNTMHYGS

| IC50 [nM] | Compound |
| --- | --- |
| < 100 | CNCC(O)COc1cccc(-c2nc(N[C@@H]3CC[C@@H](O)C3)cc(-c3c(C)noc3C)n2)c1 (stereo partly drawn) [Example 44-1a] |
| < 100 | CNC[C@@H](O)COc1ccc(Cl)c(-c2nc(N[C@H]3CCN(C4CC4)C[C@H]3F)c(C)c(-c3c(C)noc3C)n2)c1 [Example 44-3] |
| < 100 | CNCC(O)COc1cc(Cl)cc(-c2nc(N[C@H]3CCOC3)c(C)c(-c3ccncc3)n2)c1 (stereo partly drawn) [Example 45-1] |
| < 100 | CNCC(O)COc1cccc(-c2nc(NC3CC(C(=O)OC)C3)cc(-c3c(C)noc3C)n2)c1 (stereo not drawn) [Example 45-1a] |
| < 100 | CNCC(O)COc1ccc(Cl)c(-c2nc(NC3CC4(C3)CN(C(=O)OC)C4)c(C)c(-c3c(C)noc3C)n2)c1 (stereo not drawn) [Example 45-3] |
| < 100 | CNCC(O)COc1cccc(-c2nc(NC3CCOCC3)cc(-c3cc4ccccc4o3)n2)c1 (stereo not drawn) [Example 46-1] |
| < 100 | CNCC(O)COc1ccc(Cl)c(-c2nc(NC3CC(C)N(C(=O)OC)C(C)C3)c(C)c(-c3c(C)noc3C)n2)c1 (stereo not drawn) [Example 46-3] |
| < 100 | CNCC(O)COc1cc(Cl)cc(-c2nc(NC3CCOCC3)c(C)c(-c3c(C)noc3C)n2)c1 (stereo not drawn) [Example 47-1a] |
| < 100 | CNCC(O)COc1cccc(-c2nc(-c3c(C)noc3C)c(C)c(N3CCNC(C(F)F)C3)n2)c1 (stereo not drawn) [Example 47-3] |
| < 100 | CNCC(O)COc1cccc(-c2nc(-c3ccc4c(c3)OCCO4)cc(N(C)CCC#N)n2)c1 (stereo not drawn) [Example 48-1] |
| < 100 | CCN1CCC[C@H]1CNc1nc(-c2cc(OC[C@@H](O)CNC)ccc2Cl)nc(-c2c(C)noc2C)c1C [Example 48-3] |
| < 100 | CNCC(O)COc1cccc(-c2nc(-c3ccc(OC)c(OC)c3)cc(N(C)CCC#N)n2)c1 (stereo not drawn) [Example 49-1] |
| < 100 | CNCC(O)COc1cccc(-c2nc(Nc3cnc(C)nc3)cc(-c3c(C)noc3C)n2)c1 (stereo not drawn) [Example 49-1a] |
| < 100 | CCOC(=O)N1CCC[C@@H]1CNc1nc(-c2cc(OC[C@@H](O)CNC)ccc2Cl)nc(-c2c(C)noc2C)c1C [Example 49-3] |
| < 100 | CNCC(O)COc1cccc(-c2nc(NCCCN3CCCC3=O)cc(-c3cncnc3)n2)c1 (stereo not drawn) [Example 50-1] |
| < 100 | CNCC(O)COc1cccc(-c2nc(-c3c(C)noc3C)cc(N(C)c3cncnc3)n2)c1 (stereo not drawn) [Example 50-1a] |
| < 100 | CNCC(O)COc1cccc(-c2nc(-c3c(C)noc3C)cc(N(C)c3cnc(OC)nc3)n2)c1 (stereo not drawn) [Example 51-1a] |
| < 100 | CNCC(O)COc1cccc(-c2nc(NC3CCOCC3)cc(-c3cccc4ncccc34)n2)c1 (stereo not drawn) [Example 53-1] |
| < 100 | CNCC(O)COc1cccc(-c2nc(SC)c(C)c(-c3c(C)noc3C)n2)c1 (stereo not drawn) [Example 53-1a] |
| < 100 | CNC[C@H](O)COc1ccc(Cl)c(-c2nc(N[C@H]3C[C@H](OC)C3)c(C)c(-c3c(C)noc3C)n2)c1 [Example 53-3] |
| < 100 | Cc1noc(C)c1-c1nc(-c2cccc(OCC(O)CN)c2)nc(NC2CCOCC2)c1C (stereo not drawn) [Example 54-1a] |
| < 100 | CNC[C@H](O)COc1ccc(Cl)c(-c2nc(N[C@H]3C[C@@H](OC)C3)c(C)c(-c3c(C)noc3C)n2)c1 [Example 54-3] |
| < 100 | CNCC(O)COc1cccc(-c2nc(-c3cnc4[nH]ccc4c3)cc(N(C)C3CCOCC3)n2)c1 (stereo not drawn) [Example 55-1] |
| < 100 | CNC[C@H](O)COc1cccc(-c2nc(NC3CCOCC3)c(C)c(-c3c(C)noc3C)n2)c1 [Example 55-1a] |
| < 100 | CNC[C@H](O)COc1ccc(Cl)c(-c2nc(-c3c(C)noc3C)c(C)c(N3CC4(CCN(C5CC5)CC4)C3)n2)c1 [Example 55-3] |
| < 100 | CNCC(O)COc1cccc(-c2nc(-c3ccc(S(C)(=O)=O)cc3)cc(N(C)CCC#N)n2)c1 (stereo not drawn) [Example 56-1] |

| IC50 [nM] | Compound |
| --- | --- |
| < 100 | CNC[C@@H](O)COc1cccc(-c2nc(NC3CCOCC3)c(C)c(-c3c(C)noc3C)n2)c1 [Example 56-1a] |
| < 100 | CCOC(=O)N1CCOC[C@@H]1CNc1nc(-c2cc(OC[C@H](O)CNC)ccc2Cl)nc(-c2c(C)noc2C)c1Cl [Example 56-3] |
| < 100 | CNCC(O)COc1cccc(-c2nc(-c3ccnc(OC)c3)cc(N(CCOC)CCOC)n2)c1 (stereo not drawn) [Example 57-1] |
| < 100 | CNCC(O)COc1cccc(-c2nc(-c3c(C)noc3C)c(C)c(N3CCS(=O)(=O)CC3)n2)c1 (stereo not drawn) [Example 57-1a] |
| < 100 | CNCC(O)COc1ccc(Cl)c(-c2nc(N[C@H]3CCC[C@@H](OC)C3)c(C)c(-c3c(C)noc3C)n2)c1 (stereo partly drawn) [Example 57-3] |
| < 100 | CNC[C@H](O)COc1ccc(Cl)c(-c2nc(NC[C@H]3COCCN3C(=O)OC)c(C)c(-c3c(C)noc3C)n2)c1 [Example 58-3] |
| < 100 | CNCC(O)COc1cccc(-c2nc(-c3ccc4c(c3)OCCO4)cc(N(C)C3CCOCC3)n2)c1 (stereo not drawn) [Example 59-1] |
| < 100 | CNCC(O)COc1cccc(-c2nc(NC3CCS(=O)(=O)CC3)c(C)c(-c3c(C)noc3C)n2)c1 (stereo not drawn) [Example 59-1a] |
| < 100 | CCOC(=O)N1CCOC[C@H]1CNc1nc(-c2cc(OC[C@@H](O)CNC)ccc2F)nc(-c2c(C)noc2C)c1C [Example 59-3] |
| < 100 | CNCC(O)COc1cccc(-c2nc(NCCCN3CCCC3=O)cc(-c3ccnc(OC)c3)n2)c1 (stereo not drawn) [Example 60-1] |
| < 100 | CNCC(O)COc1cccc(-c2nc(NC3CCS(=O)(=O)CC3)cc(-c3c(C)noc3C)n2)c1 (stereo not drawn) [Example 60-1a] |
| < 100 | CCOC(=O)N1CCOC[C@H]1CNc1nc(-c2cc(OC[C@H](O)CNC)ccc2F)nc(-c2c(C)noc2C)c1C [Example 60-3] |
| < 100 | CNCC(O)COc1cccc(-c2nc(-c3c(C)noc3C)cc(N(C)c3cnc(C)nc3)n2)c1 (stereo not drawn) [Example 61-1a] |
| < 100 | CCOC(=O)N1CCOC[C@@H]1CNc1nc(-c2cc(OC[C@@H](O)CNC)ccc2F)nc(-c2c(C)noc2C)c1C [Example 61-3] |
| < 100 | CNCC(O)COc1cccc(-c2nc(-c3ccc4c(c3)OCCO4)cc(N(CCOC)CCOC)n2)c1 (stereo not drawn) [Example 62-1] |
| < 100 | CCOC(=O)N1CCOC[C@@H]1CNc1nc(-c2cc(OC[C@H](O)CNC)ccc2F)nc(-c2c(C)noc2C)c1C [Example 62-3] |
| < 100 | CNC[C@H](O)COc1ccc(F)c(-c2nc(N[C@H]3CCN(C(=O)OC)C[C@H]3F)c(C)c(-c3c(C)noc3C)n2)c1 [Example 63-3] |
| < 100 | CNCC(O)COc1cccc(-c2nc(-c3ccc(OC)c(OC)c3)cc(N(CCOC)CCOC)n2)c1 (stereo not drawn) [Example 64-1] |
| < 100 | CNC[C@@H](O)COc1ccc(F)c(-c2nc(N[C@H]3CCN(C(=O)OC)C[C@H]3F)c(C)c(-c3c(C)noc3C)n2)c1 [Example 64-3] |
| < 100 | CNC[C@H](O)COc1ccc(Cl)c(-c2nc(N[C@H]3CCN(C(=O)OC)C[C@H]3F)c(C)c(-c3c(C)noc3C)n2)c1 [Example 65-3] |
| < 100 | CNCC(O)COc1cccc(-c2nc(N[C@@H]3CCOC3)c(C)c(-c3c(C)noc3C)n2)c1 (stereo partly drawn) [Example 66-1a] |
| < 100 | CNC[C@H](O)COc1ccc(Cl)c(-c2nc(N[C@@H]3CCN(C(=O)OC)[C@@H](C)C3)c(C)c(-c3c(C)noc3C)n2)c1 [Example 66-3] |
| < 100 | CNCC(O)COc1cccc(-c2nc(N[C@H]3C[C@@](C)(O)C3)cc(-c3c(C)noc3C)n2)c1 (stereo partly drawn) [Example 67-1a] |
| < 100 | CCS(=O)(=O)N1CCC(Nc2nc(-c3cc(OC[C@@H](O)CNC)ccc3Cl)nc(-c3c(C)noc3C)c2C)CC1 [Example 67-3] |
| < 100 | CNCC(O)COc1cccc(-c2nc(-c3c(C)noc3C)cc(N3CCN(CCF)CC3)n2)c1 (stereo not drawn) [Example 68-1a] |

From patent US20230279020A9, “CARM1 INHIBITORS AND USES THEREOF” (Epizyme, Inc., priority 2013, published 2023)
